Structures can show the parent of a compound that is named as a salt.

This test concerns the target HIF prolyl hydroxylase. Briefly: Inhibition of the activity of HIF prolyl hydroxylase (VBC complex binding to hydroxylated peptide substrate). It is filed as biochemical. The conditions noted are these: cell lysate containing prolyl hydroxylase, peptide biotin-DLDLEMLAPYIPMDDDFQL as substrate. On the procedure:
1. In vitro Tests for Determination of the Activity and Selectivity of HIF Prolyl 4-Hydroxylase Inhibitors 1.a) Inhibition of the Activity of HIF Prolyl Hydroxylase:
Hydroxylated HIF bonds specifically to the von Hippel-Lindau protein-elongin B-elongin C complex (VBC complex). This interaction occurs only if HIF is hydroxylated on a conserved prolyl radical. It is the basis for the biochemical determination of HIF prolyl hydroxylase activity. The test is carried out as described [Oehme F., Jonghaus W., Narouz-Ott L., Huetter J., Flamme I., Anal. Biochem. 330 (1), 74-80 (2004)]:
A clear 96-well microtiter plate coated with NeutrAvidin HBC (Pierce) is incubated with blocker casein for 30 minutes. The plate is then washed three times with 200 μl each time of wash buffer (50 mM Tris, pH 7.5, 100 mM NaCl, 10% (v/v) blocker casein, 0.05% (v/v) Tween 20) per well. The peptide biotin-DLDLEMLAPYIPMDDDFQL (Eurogentec, 4102 Seraing, Belgium) is added in a concentration of 400 nM in 100 μl wash buffer. This peptide serves as a substrate for the prolyl hydroxylation and is bonded to the microtiter plate. After incubation for 60 minutes, the plate is washed three times with wash buffer, incubated with 1 mM biotin in blocker casein for 30 minutes and then washed again three times with wash buffer.
To carry out the prolyl hydroxylase reaction, the peptide substrate bonded to the plate is incubated with a cell lysate containing prolyl hydroxylase for 1 to 60 minutes. The reaction takes place in 100 μl reaction buffer (20 mM Tris, pH 7.5, 5 mM KCl, 1.5 mM MgCl2, 1 μM-1 mM 2-oxoglutarate, 10 μM FeSO4, 2 mM ascorbate) at room temperature. The reaction mixture moreover contains various concentrations of the prolyl hydroxylase inhibitor to be tested. The test substance is preferably, but not exclusively, employed at concentrations of between 1 nM and 100 μM. The reaction is stopped by washing the plate three times with wash buffer.
For quantitative determination of the prolyl hydroxylation, a fusion protein which contains both thioredoxin from E. coli and the VBC complex in 80 μl bonding buffer (50 mM Tris, pH 7.5, 120 mM NaCl) is added. After 15 minutes, 10 μl of a solution of polyclonal anti-thioredoxin antibodies from rabbit in bonding buffer are added. After a further 30 minutes, 10 μl of a solution of anti-rabbit immunoglobulin coupled to horseradish peroxidase in bonding buffer are added. After incubation at room temperature for 30 minutes, the plate is washed three times with wash buffer in order to remove non-bonded VBC complex and antibodies. To determine the amount of bonded VBC complex, the plate is incubated with TMB for 15 minutes. The color reaction is ended by addition of 100 μl 1 M sulfuric acid. The amount of bonded VBC complex is determined by measurement of the optical density at 450 nm. It is proportional to the amount of hydroxylated proline in the peptide substrate.
Alternatively, a VBC complex coupled to europium (Perkin Elmer) can be used for detection of the prolyl hydroxylation. In this case, the amount of bonded VBC complex is determined by the fluorescence with respect to time. The use of VBC complex labeled with [^35S]-methionine is moreover possible. For this, the radioactively labeled VBC complex can be prepared by in vitro transcription-translation in reticulocyte lysate.
On to `Cc1cn(-c2c[nH]n(-c3cnccn3)c2=O)nn1` [Example 43], for which the IC50 (in general, the midpoint of a concentration-inhibition curve) came to 1800 nM.
Under `Cc1cc(-n2[nH]cc(-n3ccnn3)c2=O)ncc1Br` [Example 61] stands 1100 nM; under `CCc1cc(-n2[nH]cc(-n3cnc(C(F)(F)F)c3)c2=O)ncn1` [Example 60], 1400 nM.
Regarding `Cc1cnc(-n2[nH]cc(-n3ccnc3)c2=O)cc1C` [Example 91, 2-(4,5-Dimethylpyridin-2-yl)-4-(1H-imidazol-1-yl)-1,2-dihydro-3H-pyrazol-3-one hydrochloride], the IC50 amounted to 2800 nM.
The figure for `O=c1c(-n2ccnn2)c[nH]n1-c1cc(N2CCOCC2)ncn1` [Example 72, 2-(6-Morpholin-4-ylpyrimidin-4-yl)-4-(1H-1,2,3-triazol-1-yl)-1,2-dihydro-3H-pyrazol-3-one hydrochloride] is 490 nM.
The figure for `O=c1c(-n2ccnc2)c[nH]n1-c1cc(N2CC(O)C2)ncn1` [Example 101, 2-[6-(3-Hydroxyazetidin-1-yl)pyrimidin-4-yl]-4-(1H-imidazol-1-yl)-1,2-dihydro-3H-pyrazol-3-one hydrochloride] is 1700 nM; for `O=c1c(-n2ccnn2)c[nH]n1-c1cc(C2CC2)ncn1` [Example 17, 2-(6-Cyclopropylpyrimidin-4-yl)-4-(1H-1,2,3-triazol-1-yl)-1,2-dihydro-3H-pyrazol-3-one hydrochloride] it is 560 nM.
Under `COC1CCCN(c2cc(-n3[nH]cc(-n4ccnc4)c3=O)ncn2)C1` (centres unmarked) [Example 166] stands 690 nM.
In turn, `O=c1c(-n2ccnn2)c[nH]n1-c1cc(N2CCSCC2)ncn1` [Example 113] had an IC50 of 740 nM.
Under `O=c1c(-c2nnc(C(F)(F)F)s2)c[nH]n1-c1ccccn1` [Example 5] stands 1200 nM.
On to `Cc1cc(-c2c[nH]n(-c3ccccn3)c2=O)on1` [Example 50], for which the IC50 stood at 1400 nM.
Consider `CC(C)(C)COc1ccc(-n2[nH]cc(-n3ccnn3)c2=O)nc1` [Example 85, 2-[5-(2,2-Dimethylpropoxy)pyridin-2-yl]-4-(1H-1,2,3-triazol-1-yl)-1,2-dihydro-3H-pyrazol-3-one hydrochloride], for which the half-inhibitory concentration (IC50) amounted to 190 nM. This IC50 lies about 7.4-fold lower than the previous one.
For the molecule `CCSc1cc(-n2[nH]cc(-n3ccnn3)c2=O)ncn1` [Example 103, 2-[6-(Ethylsulfanyl)pyrimidin-4-yl]-4-(1H-1,2,3-triazol-1-yl)-1,2-dihydro-3H-pyrazol-3-one hydrochloride], the IC50 was 350 nM.
The figure for `O=c1c(-n2ccnc2)c[nH]n1-c1cc(N2CCCCC2)ncn1` [Example 10, 4-(1H-Imidazol-1-yl)-2-(6-piperidin-1-ylpyrimidin-4-yl)-1,2-dihydro-3H-pyrazol-3-one] is 500 nM; for `CC(C)c1cn(-c2c[nH]n(-c3ccc(CO)cn3)c2=O)nn1` [Example 45] it is 780 nM; for `O=c1c(-n2ccnn2)c[nH]n1-c1cc(C(F)(F)F)ccn1` [Example 83, 4-(1H-1,2,3-Triazol-1-yl)-2-[4-(trifluoromethyl)pyridin-2-yl]-1,2-dihydro-3H-pyrazol-3-one hydrochloride] it is 1900 nM.
Under `CC(C)(C)OC(=O)c1ccc(-n2[nH]cc(-n3ccnn3)c2=O)nc1` [Example 62, 6-[5-Oxo-4-(1H-1,2,3-triazol-1-yl)-2,5-dihydro-1H-pyrazol-1-yl]pyridine-3-carboxylic acid tert-butyl ester hydrochloride] stands 50 nM; under `CC1CCN(c2cc(-n3[nH]cc(-n4ccnn4)c3=O)ncn2)CC1` [Example 129], 360 nM.
The figure for `O=c1c(-n2cnc(C(F)(F)F)c2)c[nH]n1-c1ccc(CO)cn1` [Example 12, 2-[5-(Hydroxymethyl)pyridin-2-yl]-4-[4-(trifluoromethyl)-1H-imidazol-1-yl]-1,2-dihydro-3H-pyrazol-3-one] is 750 nM; for `Cc1ccnc(-n2[nH]cc(-n3ccnn3)c2=O)c1` [Example 7, 2-(4-Methylpyridin-2-yl)-4-(1H-1,2,3-triazol-1-yl)-1,2-dihydro-3H-pyrazol-3-one hydrochloride] it is 340 nM.

These data come from patent publication US8653111B2, “Substituted dihydropyrazolones for treating cardiovascular and hematological diseases” (Bayer Intellectual Property GmbH, priority 2006, dated 2014).
